The values that follow are results of earlier work, collected in US20220000787A1, “DELAYED RELEASE PHARMACEUTICAL COMPOSITION OF PREDNISONE AND PREPARATION THEREOF” (PIRAMAL PHARMA LIMITED, priority 2020, published 2022).

As to `C[C@]12C=CC(=O)C=C1CC[C@@H]1[C@@H]2C(=O)C[C@@]2(C)[C@H]1CC[C@]2(O)C(=O)CO` [Prednisone, 17,21-dihydroxypregna-1,4-diene-3,11,20-trione], where the note is “alcohol, chloroform, dioxane, methanol”, the “Solubility in alcohol, chloroform, dioxane, and methanol” value is reported as “slightly soluble”. Further, the Solubility in water entry (water) was “very slightly soluble”.
